The kinase profiling compilation of Christmann-Franck et al. (2016)
Several values for one entry are separate records, joined by “and”; a condition that tells them apart may be missing. Identical values can stand only once.

Legend:
Experiment in all cases: radiometric filter-binding kinase assay, Kinase HotSpot
Conditions in all cases: compound 0.5 µM; ATP 10 µM
[1] = target: ERBB2 (human) (UniProt P04626)
[2] = target: PAK2 (human) (UniProt Q13177)
[3] = target: CSNK2A1 (human) (UniProt P68400)
[4] = target: CSNK1A1 (human) (UniProt P48729)
[5] = target: EPHB3 (human) (UniProt P54753)
[6] = target: GRK6 (human) (UniProt P43250)
[7] = target: MAP4K4 (human) (UniProt O95819)
[8] = target: MAPK13 (human) (UniProt O15264)
[9] = target: FRK (human) (UniProt P42685)
[10] = target: RPS6KA4 KD2 (human) (UniProt O75676)
[11] = target: MAPKAPK3 (human) (UniProt Q16644)
[12] = target: TSSK2 (human) (UniProt Q96PF2)
[13] = target: CHEK1 (human) (UniProt O14757)
[14] = target: CDK1 CCNA2 (human) (UniProt P06493+P20248)
[15] = target: RIPK2 (human) (UniProt O43353)
[16] = target: FLT3 (human) (UniProt P36888)
[17] = target: TGFBR1 (human) (UniProt P36897)
[18] = target: FYN (human) (UniProt P06241)
[19] = target: SRPK1 (human) (UniProt Q96SB4)
[20] = target: MAPK10 (human) (UniProt P53779)
[21] = target: MAPKAPK2 (human) (UniProt P49137)
[22] = target: MAPK1 (human) (UniProt P28482)
[23] = target: EPHA5 (human) (UniProt P54756)
[24] = target: ROCK1 (human) (UniProt Q13464)
[25] = target: PRKG1 (human) (UniProt Q13976)
[26] = target: FGR (human) (UniProt P09769)
[27] = target: CDK4 CCND3 (human) (UniProt P30281+P11802)
[28] = target: PRKD1 (human) (UniProt Q15139)
[29] = target: CDK9 CCNT1 (human) (UniProt P50750+O60563)
[30] = target: PRKCA (human) (UniProt P17252)
[31] = target: PNCK (human) (UniProt Q6P2M8)
[32] = target: FLT1 (human) (UniProt P17948)
[33] = target: RPS6KA3 KD1 KD2 (human) (UniProt P51812)
[34] = target: CDK6 CCND3 (human) (UniProt P30281+Q00534)
[35] = target: MAP4K2 (human) (UniProt Q12851)
[36] = target: MAP4K5 (human) (UniProt Q9Y4K4)
[37] = target: AURKC (human) (UniProt Q9UQB9)
[38] = target: CAMK2A (human) (UniProt Q9UQM7)
[39] = target: ACVR1 (human) (UniProt Q04771)
[40] = target: PRKD3 (human) (UniProt O94806)
[41] = target: STK16 (human) (UniProt O75716)

Chain of CDK9 CCNT1 (human) (O60563 whole entry, looked up): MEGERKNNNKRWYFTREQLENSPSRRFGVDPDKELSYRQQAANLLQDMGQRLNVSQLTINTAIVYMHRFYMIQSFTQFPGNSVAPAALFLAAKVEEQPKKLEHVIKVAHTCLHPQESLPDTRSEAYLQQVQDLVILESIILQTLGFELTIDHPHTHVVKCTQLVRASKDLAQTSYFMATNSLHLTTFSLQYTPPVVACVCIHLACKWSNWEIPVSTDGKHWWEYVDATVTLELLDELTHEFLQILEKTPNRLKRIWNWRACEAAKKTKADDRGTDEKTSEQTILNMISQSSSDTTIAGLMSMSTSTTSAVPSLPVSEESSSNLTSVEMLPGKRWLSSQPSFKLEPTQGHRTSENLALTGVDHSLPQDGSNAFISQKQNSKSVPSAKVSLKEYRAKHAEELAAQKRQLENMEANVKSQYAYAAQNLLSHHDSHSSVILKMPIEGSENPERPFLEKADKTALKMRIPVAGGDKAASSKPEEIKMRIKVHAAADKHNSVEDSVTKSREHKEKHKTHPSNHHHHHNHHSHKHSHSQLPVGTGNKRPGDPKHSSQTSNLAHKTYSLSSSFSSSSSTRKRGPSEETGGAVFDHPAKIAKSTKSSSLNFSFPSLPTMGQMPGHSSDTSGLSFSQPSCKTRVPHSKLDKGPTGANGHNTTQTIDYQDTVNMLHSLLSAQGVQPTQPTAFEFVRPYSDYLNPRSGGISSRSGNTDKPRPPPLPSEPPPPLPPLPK
Chain of CDK9 CCNT1 (human) (P50750 whole entry, looked up): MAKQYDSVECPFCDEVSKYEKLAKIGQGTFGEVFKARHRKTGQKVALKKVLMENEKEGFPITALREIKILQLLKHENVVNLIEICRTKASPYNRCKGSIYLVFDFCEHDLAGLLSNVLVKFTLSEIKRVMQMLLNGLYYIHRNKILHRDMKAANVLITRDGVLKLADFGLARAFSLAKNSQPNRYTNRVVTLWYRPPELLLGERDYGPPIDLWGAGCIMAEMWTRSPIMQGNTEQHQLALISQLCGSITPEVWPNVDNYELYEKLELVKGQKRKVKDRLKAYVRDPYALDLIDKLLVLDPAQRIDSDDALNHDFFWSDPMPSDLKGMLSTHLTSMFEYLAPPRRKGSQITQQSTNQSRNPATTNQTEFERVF
Chain of GRK6 (human) (P43250 whole entry, looked up): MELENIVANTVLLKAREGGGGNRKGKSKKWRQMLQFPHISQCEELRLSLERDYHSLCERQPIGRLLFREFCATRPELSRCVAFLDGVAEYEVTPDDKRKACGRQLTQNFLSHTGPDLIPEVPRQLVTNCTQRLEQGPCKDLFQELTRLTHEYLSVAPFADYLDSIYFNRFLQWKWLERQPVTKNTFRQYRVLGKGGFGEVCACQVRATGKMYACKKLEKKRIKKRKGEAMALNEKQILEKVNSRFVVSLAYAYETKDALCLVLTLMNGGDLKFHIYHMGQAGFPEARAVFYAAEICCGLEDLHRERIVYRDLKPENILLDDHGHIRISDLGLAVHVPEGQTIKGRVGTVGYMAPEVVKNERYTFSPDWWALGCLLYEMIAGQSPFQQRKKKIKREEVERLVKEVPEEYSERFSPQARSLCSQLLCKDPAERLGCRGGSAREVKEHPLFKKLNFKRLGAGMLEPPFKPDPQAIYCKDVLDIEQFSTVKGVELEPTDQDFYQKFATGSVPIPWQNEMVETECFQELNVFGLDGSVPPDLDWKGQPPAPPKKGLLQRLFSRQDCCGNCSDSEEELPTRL
Chain of RIPK2 (human) (O43353 whole entry, looked up): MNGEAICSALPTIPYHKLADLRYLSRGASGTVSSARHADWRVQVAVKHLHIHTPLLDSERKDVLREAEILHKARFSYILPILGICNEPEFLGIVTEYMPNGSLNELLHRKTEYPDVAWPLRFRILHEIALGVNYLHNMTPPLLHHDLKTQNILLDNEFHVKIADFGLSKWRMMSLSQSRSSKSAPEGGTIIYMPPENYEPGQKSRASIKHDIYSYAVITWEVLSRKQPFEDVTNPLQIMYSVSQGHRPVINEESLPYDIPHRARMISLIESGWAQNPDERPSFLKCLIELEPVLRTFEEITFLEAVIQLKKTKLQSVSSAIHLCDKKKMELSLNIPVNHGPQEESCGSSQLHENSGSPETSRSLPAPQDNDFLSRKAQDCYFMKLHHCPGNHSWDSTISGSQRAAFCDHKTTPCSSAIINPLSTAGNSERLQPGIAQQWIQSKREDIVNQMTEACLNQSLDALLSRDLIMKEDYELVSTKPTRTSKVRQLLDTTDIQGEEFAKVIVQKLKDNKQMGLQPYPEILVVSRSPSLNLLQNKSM
Chain of PNCK (human) (Q6P2M8 whole entry, looked up): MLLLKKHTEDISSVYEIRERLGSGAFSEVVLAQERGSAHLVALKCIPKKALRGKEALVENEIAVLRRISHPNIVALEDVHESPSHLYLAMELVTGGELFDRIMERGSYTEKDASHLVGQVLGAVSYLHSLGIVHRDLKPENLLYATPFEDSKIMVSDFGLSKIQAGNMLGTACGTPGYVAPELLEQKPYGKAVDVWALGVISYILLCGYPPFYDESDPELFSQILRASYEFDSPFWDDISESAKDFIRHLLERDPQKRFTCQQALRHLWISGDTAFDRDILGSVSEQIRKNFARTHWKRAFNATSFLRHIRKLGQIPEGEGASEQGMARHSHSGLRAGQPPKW
Chain of CDK1 CCNA2 (human) (P06493 whole entry, looked up): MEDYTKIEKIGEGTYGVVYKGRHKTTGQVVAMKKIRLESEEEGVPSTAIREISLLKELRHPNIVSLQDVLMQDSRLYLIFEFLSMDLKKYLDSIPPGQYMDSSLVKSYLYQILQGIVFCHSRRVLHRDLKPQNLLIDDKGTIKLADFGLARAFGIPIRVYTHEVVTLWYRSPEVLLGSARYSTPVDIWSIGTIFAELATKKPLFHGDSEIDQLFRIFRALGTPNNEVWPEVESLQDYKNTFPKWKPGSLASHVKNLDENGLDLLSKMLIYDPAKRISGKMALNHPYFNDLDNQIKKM
Chain of CDK1 CCNA2 (human) (P20248 whole entry, looked up): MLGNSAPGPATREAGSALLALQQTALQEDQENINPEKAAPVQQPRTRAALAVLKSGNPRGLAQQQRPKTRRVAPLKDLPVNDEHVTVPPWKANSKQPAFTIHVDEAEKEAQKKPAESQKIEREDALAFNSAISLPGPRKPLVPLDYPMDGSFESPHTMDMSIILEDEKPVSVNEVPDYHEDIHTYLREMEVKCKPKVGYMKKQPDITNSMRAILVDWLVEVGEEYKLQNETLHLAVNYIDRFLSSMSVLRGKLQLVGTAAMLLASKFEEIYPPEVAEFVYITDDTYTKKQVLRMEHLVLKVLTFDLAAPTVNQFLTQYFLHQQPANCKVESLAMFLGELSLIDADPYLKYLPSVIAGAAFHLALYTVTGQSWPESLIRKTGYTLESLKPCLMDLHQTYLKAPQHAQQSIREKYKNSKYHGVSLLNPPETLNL
Chain of RPS6KA3 KD1 KD2 (human) (P51812 whole entry, looked up): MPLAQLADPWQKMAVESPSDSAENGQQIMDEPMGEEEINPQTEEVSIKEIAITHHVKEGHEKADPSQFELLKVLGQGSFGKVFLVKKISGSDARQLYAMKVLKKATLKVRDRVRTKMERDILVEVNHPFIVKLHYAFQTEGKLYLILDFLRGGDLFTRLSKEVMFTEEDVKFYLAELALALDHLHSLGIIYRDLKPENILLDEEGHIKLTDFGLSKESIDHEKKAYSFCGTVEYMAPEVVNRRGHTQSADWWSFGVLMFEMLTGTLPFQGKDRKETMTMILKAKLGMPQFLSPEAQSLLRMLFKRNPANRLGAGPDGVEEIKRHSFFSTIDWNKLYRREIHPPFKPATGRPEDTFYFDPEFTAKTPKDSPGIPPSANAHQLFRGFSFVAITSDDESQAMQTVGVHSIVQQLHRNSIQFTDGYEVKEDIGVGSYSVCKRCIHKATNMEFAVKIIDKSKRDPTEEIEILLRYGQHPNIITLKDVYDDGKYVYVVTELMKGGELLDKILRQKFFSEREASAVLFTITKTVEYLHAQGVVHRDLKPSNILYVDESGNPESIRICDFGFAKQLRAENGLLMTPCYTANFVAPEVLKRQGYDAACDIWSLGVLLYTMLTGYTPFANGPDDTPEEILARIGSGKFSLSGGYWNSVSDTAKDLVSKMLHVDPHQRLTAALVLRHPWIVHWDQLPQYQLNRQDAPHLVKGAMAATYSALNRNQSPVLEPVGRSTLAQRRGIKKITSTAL
Chain of RPS6KA4 KD2 (human) (O75676 whole entry, looked up): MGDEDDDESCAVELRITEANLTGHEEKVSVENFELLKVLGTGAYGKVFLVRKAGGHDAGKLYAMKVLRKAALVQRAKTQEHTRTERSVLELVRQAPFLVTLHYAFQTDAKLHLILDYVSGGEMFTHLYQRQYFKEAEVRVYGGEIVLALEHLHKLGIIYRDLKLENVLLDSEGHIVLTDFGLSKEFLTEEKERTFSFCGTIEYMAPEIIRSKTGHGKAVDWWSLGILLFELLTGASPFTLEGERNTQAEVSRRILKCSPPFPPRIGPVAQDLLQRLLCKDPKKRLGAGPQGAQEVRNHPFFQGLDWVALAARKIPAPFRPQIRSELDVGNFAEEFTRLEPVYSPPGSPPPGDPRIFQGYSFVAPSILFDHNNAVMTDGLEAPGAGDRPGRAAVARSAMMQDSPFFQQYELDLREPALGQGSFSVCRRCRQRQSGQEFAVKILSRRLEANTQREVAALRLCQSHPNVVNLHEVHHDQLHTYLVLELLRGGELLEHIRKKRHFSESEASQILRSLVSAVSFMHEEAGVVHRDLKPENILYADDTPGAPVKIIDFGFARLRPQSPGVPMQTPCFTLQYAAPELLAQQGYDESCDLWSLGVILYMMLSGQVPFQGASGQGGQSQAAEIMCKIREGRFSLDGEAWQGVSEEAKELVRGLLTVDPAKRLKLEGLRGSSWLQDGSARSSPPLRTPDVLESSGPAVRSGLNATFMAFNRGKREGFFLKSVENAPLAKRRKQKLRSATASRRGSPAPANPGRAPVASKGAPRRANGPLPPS

O=C(Nc1ccc(Cl)cc1)c1ccccc1NCc1ccncc1
residual activity [1]: 98.7%
residual activity [2]: 91%
residual activity [3]: 91.1%
residual activity [4]: 88.1%
residual activity [5]: 96.9%
residual activity [6]: 101%
residual activity [7]: 88.7%
residual activity [8]: 95.6%
residual activity [9]: 62.8%
residual activity [10]: 90.2%
residual activity [11]: 91.4%
residual activity [12]: 86.3%
residual activity [13]: 96.4%
residual activity [14]: 91.8%
residual activity [15]: 82.9%
residual activity [16]: 91.5%
residual activity [17]: 100%
residual activity [18]: 97%
residual activity [19]: 109%
residual activity [20]: 89.9%
residual activity [21]: 97.6%
residual activity [22]: 94.7%
residual activity [23]: 82.1%
residual activity [24]: 98.4%
residual activity [25]: 86.8% and 92.3%
residual activity [26]: 83.8%
residual activity [27]: 94.2%
residual activity [28]: 93.2%
residual activity [29]: 81.9%
residual activity [30]: 96.7%
residual activity [31]: 94.8%
residual activity [32]: 24.8%
residual activity [33]: 91.4%
residual activity [34]: 86.5%
residual activity [35]: 97.3%
residual activity [36]: 95.8%
residual activity [37]: 93.4%
residual activity [38]: 99.9%
residual activity [39]: 97.2%
residual activity [40]: 92.1%
residual activity [41]: 94.1%

CC(C)[C@H](CO)Nc1nc(Nc2cccc(Cl)c2)c2ncn(C(C)C)c2n1
residual activity [1]: 97.1%
residual activity [2]: 103%
residual activity [3]: 101%
residual activity [4]: 91.8%
residual activity [5]: 102%
residual activity [6]: 98.3%
residual activity [7]: 84.9%
residual activity [8]: 122%
residual activity [9]: 90.2%
residual activity [10]: 90.1%
residual activity [11]: 85.4%
residual activity [12]: 97.5%
residual activity [13]: 97.9%
residual activity [14]: 31.7%
residual activity [15]: 88.1%
residual activity [16]: 16.4%
residual activity [17]: 103%
residual activity [18]: 48.9%
residual activity [19]: 77%
residual activity [20]: 96.7%
residual activity [21]: 102%
residual activity [22]: 86.7%
residual activity [23]: 87.9%
residual activity [24]: 100%
residual activity [25]: 71.4% and 90.2%
residual activity [26]: 44.3%
residual activity [27]: 88.3%
residual activity [28]: 96.9%
residual activity [29]: 65%
residual activity [30]: 115%
residual activity [31]: 97.8%
residual activity [32]: 102%
residual activity [33]: 86.3%
residual activity [34]: 71%
residual activity [35]: 97.6%
residual activity [36]: 97.5%
residual activity [37]: 93.2%
residual activity [38]: 101%
residual activity [39]: 92.6%
residual activity [40]: 95.5%
residual activity [41]: 102%

Nc1n[nH]c2nnc(-c3c(-c4ccccc4)nn4ccccc34)cc12
residual activity [1]: 105%
residual activity [2]: 100%
residual activity [3]: 94.8%
residual activity [4]: 100%
residual activity [5]: 96.8%
residual activity [6]: 99.3%
residual activity [7]: 62%
residual activity [8]: 101%
residual activity [9]: 101%
residual activity [10]: 94.7%
residual activity [11]: 103%
residual activity [12]: 104%
residual activity [13]: 103%
residual activity [14]: 101%
residual activity [15]: 87%
residual activity [16]: 63.5%
residual activity [17]: 96.1%
residual activity [18]: 95%
residual activity [19]: 83.7%
residual activity [20]: 103%
residual activity [21]: 105%
residual activity [22]: 87.2%
residual activity [23]: 101%
residual activity [24]: 100%
residual activity [25]: 89.5% and 93.6%
residual activity [26]: 92.9%
residual activity [27]: 100%
residual activity [28]: 68.4%
residual activity [29]: 97.3%
residual activity [30]: 87.2%
residual activity [31]: 99.6%
residual activity [32]: 96.7%
residual activity [33]: 98.7%
residual activity [34]: 90.4%
residual activity [35]: 98.6%
residual activity [36]: 50.3%
residual activity [37]: 96.4%
residual activity [38]: 102%
residual activity [39]: 107%
residual activity [40]: 58.9%
residual activity [41]: 108%

Cc1cc2ncc(-c3ccccc3)nc2cc1C
residual activity [1]: 97.4%
residual activity [2]: 99.3%
residual activity [3]: 102%
residual activity [4]: 95.4%
residual activity [5]: 98.4%
residual activity [6]: 103%
residual activity [7]: 85%
residual activity [8]: 107%
residual activity [9]: 99.1%
residual activity [10]: 99.4%
residual activity [11]: 100%
residual activity [12]: 87.5%
residual activity [13]: 94.2%
residual activity [14]: 94.4%
residual activity [15]: 98.3%
residual activity [16]: 53.6%
residual activity [17]: 94.7%
residual activity [18]: 99.4%
residual activity [19]: 103%
residual activity [20]: 103%
residual activity [21]: 95.9%
residual activity [22]: 88%
residual activity [23]: 96.1%
residual activity [24]: 100%
residual activity [25]: 86.2% and 93.7%
residual activity [26]: 99.1%
residual activity [27]: 94.6%
residual activity [28]: 100%
residual activity [29]: 93.9%
residual activity [30]: 90.5%
residual activity [31]: 96.3%
residual activity [32]: 85.2%
residual activity [33]: 94.2%
residual activity [34]: 86.7%
residual activity [35]: 113%
residual activity [36]: 89.3%
residual activity [37]: 92.1%
residual activity [38]: 98.4%
residual activity [39]: 91.8%
residual activity [40]: 92.2%
residual activity [41]: 108%

COc1cc2nccc(Oc3ccc(NC(=S)NC(=O)c4ccccc4C)cc3)c2cc1OC
residual activity [1]: 102%
residual activity [2]: 91.2%
residual activity [3]: 98.9%
residual activity [4]: 96.3%
residual activity [5]: 95.7%
residual activity [6]: 91%
residual activity [7]: 87.8%
residual activity [8]: 101%
residual activity [9]: 27.5%
residual activity [10]: 99.7%
residual activity [11]: 102%
residual activity [12]: 86.7%
residual activity [13]: 95.1%
residual activity [14]: 91.6%
residual activity [15]: 89.2%
residual activity [16]: 46.6%
residual activity [17]: 98%
residual activity [18]: 77.4%
residual activity [19]: 98%
residual activity [20]: 98.7%
residual activity [21]: 98%
residual activity [22]: 89.3%
residual activity [23]: 91%
residual activity [24]: 90.5%
residual activity [25]: 101% and 91.6%
residual activity [26]: 21.2%
residual activity [27]: 93.4%
residual activity [28]: 137%
residual activity [29]: 104%
residual activity [30]: 91.3%
residual activity [31]: 93.2%
residual activity [32]: 89.8%
residual activity [33]: 86.9%
residual activity [34]: 97.3%
residual activity [35]: 92.9%
residual activity [36]: 11.1%
residual activity [37]: 30.2%
residual activity [38]: 85.6%
residual activity [39]: 93.5%
residual activity [40]: 97.8%
residual activity [41]: 101%
